Source: patent US20230248723A1, “PYRROLO[2,3-B]PYRAZINE COMPOUNDS AS CCCDNA INHIBITORS FOR THE TREATMENT OF HEPATITIS B VIRUS (HBV) INFECTION” (Hoffmann-La Roche Inc., priority 2017, published 2023)
Where two headings read alike, the source gives them in different places.

Columns and labels:
[1] = test system: iPS-derived hepatocyte-like cells (HLC); assay: HBV infection of MB-1-treated HLC (HBsAg released into culture medium); type: cell-based, human
[2] = test system: liver-enriched genes (liver signatures); assay: Whole-genome transcriptome microarray on HLC treated with MB-1; type: cell-based, human
Protocol: FIG. 1: Maturation screen identified a small molecule that enhances maturation of HLC. (A) HLC maturation screening cascade. […] Lane 1-3, MB-1 (5 μM) at 7 d, 24 h, and 2 h, respectively. Lane 4-6, MB-1 (0.5 μM) at 7 d, 24 h, and 2 h, respectively. (C) BioQC liver score analysis of HLC transcriptomes (following treatment with MB-1 for 2 h, 24 h, and 7 day) were compared to those of PHH, HepaRG, and HepG2. (D) Expression of AAT-1a in HLC after 14 day of treatment with MB-1, or 1% DMSO. (E) MB-1-treated HLC support robust HBV infection: HLC (in 96-well plate) were treated with MB-1 (1 μM), or 1% DMSO, for 4 days, then infected with patient-derived HBV (MOI 10, in triplicate). Culture medium was harvested at indicated time points and analyzed for HBsAg.
To fully manifest the potential of HLC as a disease-relevant assay for HBV drug discovery, they have to meet the following criteria: hepatocyte-likeness, scalability, assay robustness, and reproducibility. It is well known that HLC still display immature phenotypes i.e. resemble more fetal than adult, hepatocytes (Baxter et al., 2015; Godoy et al., 2015; Goldring et al., 2017). […]

cccDNA = cccDNA (digital PCR), HBV-infected HepaRG; type: cell-based; conditions: for IC50: Hepatitis B virus

With `O=C(NCc1cccc(F)c1)c1cccc2[nH]c(-c3c(NC[C@@H](O)c4ccccc4)cc[nH]c3=O)nc12` [MB-1] the “peak of HBsAg” value ([1]; HLC treated with MB-1 1 μM for 4 days, patient-derived HBV MOI 10, day 11 pi) was roughly 16 ng/mL, the “HBsAg” value ([1]; HLC with MB-1, HepG2.2.15-derived HBV, MOI 10, day 1 pi) was 0.05 ± 0.01 ng/mL and the “HBsAg” value ([1]; HLC with MB-1, HepG2.2.15-derived HBV, MOI 10, day 3 pi) was 0.06 ± 0.01 ng/mL. The “HBsAg” value ([1]; HLC with MB-1, HepG2.2.15-derived HBV, MOI 10, day 8 pi) was 0.08 ± 0.01 ng/mL, the “HBsAg” value ([1]; HLC with MB-1, HepG2.2.15-derived HBV, MOI 10, day 11 pi) was 0.10 ± 0.01 ng/mL and the “HBsAg” value ([1]; HLC with MB-1, HepG2.2.15-derived HBV, MOI 10, day 14 pi) was 0.09 ± 0.01 ng/mL. The “HBsAg” value ([1]; HLC with MB-1, HepG2.2.15-derived HBV, MOI 100, day 1 pi) was 414.13 ± 1.68 ng/mL, the “HBsAg” value ([1]; HLC with MB-1, HepG2.2.15-derived HBV, MOI 100, day 3 pi) was 8.12 ± 2.21 ng/mL and the “HBsAg” value ([1]; HLC with MB-1, HepG2.2.15-derived HBV, MOI 100, day 8 pi) was 0.36 ± 0.11 ng/mL. For the same molecule, the “HBsAg” value ([1]; HLC with MB-1, HepG2.2.15-derived HBV, MOI 100, day 11 pi) was 0.73 ± 0.20 ng/mL, the “HBsAg” value ([1]; HLC with MB-1, HepG2.2.15-derived HBV, MOI 100, day 14 pi) was 0.43 ± 0.18 ng/mL and the “HBsAg” value ([1]; HLC with MB-1, patient-derived HBV, MOI 10, day 1 pi) was 0.34 ± 0.06 ng/mL. The “HBsAg” value ([1]; HLC with MB-1, patient-derived HBV, MOI 10, day 3 pi) was 0.93 ± 0.25 ng/mL, the “HBsAg” value ([1]; HLC with MB-1, patient-derived HBV, MOI 10, day 8 pi) was 5.87 ± 1.34 ng/mL and the “HBsAg” value ([1]; HLC with MB-1, patient-derived HBV, MOI 10, day 11 pi) was 14.31 ± 2.02 ng/mL. For the same molecule, the “HBsAg” value ([1]; HLC with MB-1, patient-derived HBV, MOI 10, day 14 pi) was 10.39 ± 1.46 ng/mL, the “number of liver-enriched genes (liver tissue signature) with up-regulated mRNA expression” value ([2]; Gini index >0.7) was roughly 237 and the “number of up-regulated genes that are highly expressed in the liver” value ([2]; Gini index >0.8) was 137.

`O=C(NC(CO)CO)c1c[nH]c2ncc(C3CC3)nc12` [compound 7] gave an IC50 (cccDNA; HepG2.2.15-derived HBV GT D, MOI 40, read-out: cccDNA IC50 (μM) Median) of 25.9 µM, an IC50 (cccDNA; HepG2.2.15-derived HBV GT D, MOI 125, read-out: cccDNA IC50 (μM) Median) of 27.2 µM and an IC50 (cccDNA; patient-derived HBV GT D, MOI 125, read-out: cccDNA IC50 (μM) Median) of 7.05 µM. The “cccDNA IC50 (μM) Median” value (cccDNA; patient-derived HBV GT D, MOI 40) was “below LLOQ”.
